Results as given in patent US20230339939A1 (Bayer Aktiengesellschaft, priority 2020, published 2023).
Read-outs that look alike come from different tables or passages of the source.

Key:
[1] = biological target: CSNK1A1 (Homo sapiens (Human), UniProt P48729); experiment: CSNK1A1 Assay 2 (ADP-Glo, 1 μM ATP, substrate biotin-Ahx-KRRRAL-pS-VASLPGL); type: biochemical; details: median, read-out: CSNK1A1 Assay 2 IC50 [mol/l] (median)
Summary of the method: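 Activity read as ADP generated (ADP-Glo luciferase luminescence, 1 h detection steps at 22 °C). Enzyme was insect-cell-expressed GST–full-length human CSNK1A1, compound-preincubated 15 min before reaction with phosphopeptide substrate and 1 μM ATP in 50 mM HEPES pH 7.5, 10 mM MgCl2.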

[2] = biological target: wild-type Epidermal Growth Factor Receptor (EGFR) (Homo sapiens (Human), UniProt P00533); experiment: WT-EGFR Kinase Assay (TR-FRET, 2 mM ATP); type: biochemical
Chain of wild-type Epidermal Growth Factor Receptor (EGFR) (P00533 669-1210): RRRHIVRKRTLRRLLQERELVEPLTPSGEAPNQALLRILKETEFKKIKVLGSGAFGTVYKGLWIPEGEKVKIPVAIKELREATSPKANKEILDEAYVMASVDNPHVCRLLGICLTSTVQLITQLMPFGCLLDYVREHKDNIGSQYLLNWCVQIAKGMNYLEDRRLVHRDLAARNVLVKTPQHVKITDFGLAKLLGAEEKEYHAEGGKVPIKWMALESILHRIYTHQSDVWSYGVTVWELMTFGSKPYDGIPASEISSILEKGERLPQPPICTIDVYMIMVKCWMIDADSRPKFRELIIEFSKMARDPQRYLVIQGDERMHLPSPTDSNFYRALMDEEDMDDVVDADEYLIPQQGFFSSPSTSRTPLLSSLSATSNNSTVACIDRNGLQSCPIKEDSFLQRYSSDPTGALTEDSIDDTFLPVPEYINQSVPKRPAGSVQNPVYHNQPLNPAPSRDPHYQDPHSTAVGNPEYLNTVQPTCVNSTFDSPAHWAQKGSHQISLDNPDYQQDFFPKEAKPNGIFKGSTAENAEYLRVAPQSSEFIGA
Summary of the method: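 GST-fused human EGFR fragment (R669-A1210) from Sf9 cells, typically 7.6 pg/μL, pre-incubated with compound 15 min at 22° C in Hepes pH 7.0 buffer with MgCl2, DTT and vanadate; biotinylated peptide substrate. After EDTA stop, phosphopeptide detected by TR-FRET (anti-phosphotyrosine Tb-cryptate/streptavidin-XL665), 665/620 nm emission ratio.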

[3] = read-out: EGFR Wildtype 2 mM ATP IC50 [mol/l] (median)

Chain of CSNK1A1 (P48729 whole entry): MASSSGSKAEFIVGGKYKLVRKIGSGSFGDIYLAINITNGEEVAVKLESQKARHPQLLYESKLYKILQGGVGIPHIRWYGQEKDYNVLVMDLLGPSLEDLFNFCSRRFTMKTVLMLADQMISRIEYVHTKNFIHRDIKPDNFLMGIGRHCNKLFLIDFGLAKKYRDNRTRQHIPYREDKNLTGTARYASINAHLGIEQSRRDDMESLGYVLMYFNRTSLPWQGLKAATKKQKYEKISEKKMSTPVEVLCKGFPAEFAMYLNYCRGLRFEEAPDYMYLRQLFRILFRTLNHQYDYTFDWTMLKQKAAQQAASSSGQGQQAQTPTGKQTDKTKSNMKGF

| Structure (SMILES) | IC50 [1] | IC50 [2, 3] | IC50 ([2]; median) |
| --- | --- | --- | --- |
| O=C(Cc1ccc(F)cc1)Nc1cc(-c2[nH]c3ccc(Cl)nc3c2-c2ccccn2)ccn1 [Example 23, N-{4-[5-chloro-3-(pyridin-2-yl)-1H-pyrrolo[3,2-b]pyridin-2-yl]pyridin-2-yl}-2-(4-fluorophenyl)acetamide] | 0.941 nM | > 20000 nM |  |
| COc1ccnc2c(-c3ccccn3)c(-c3ccnc(NC(=O)Cc4ccc(F)cc4)c3)[nH]c12 [Example 31, 2-(4-fluorophenyl)-N-{4-[7-methoxy-3-(pyridin-2-yl)-1H-pyrrolo[3,2-b]pyridin-2-yl]pyridin-2-yl}acetamide] | 2.5 nM | > 20000 nM |  |
| CC(C(=O)Nc1cc(-c2[nH]c3ccc(F)nc3c2-c2ccccn2)ccn1)c1ccc(F)cc1 (racemic) [Example 1, 2-(4-fluorophenyl)-N-{4-[5-fluoro-3-(pyridin-2-yl)-1H-pyrrolo[3,2-b]pyridin-2-yl]pyridin-2-yl}propanamide] | 1.66 nM |  | > 20000 nM |
| CC(C(=O)Nc1cc(-c2[nH]c3cccnc3c2-c2ccccn2)ccn1)c1ccc(F)cc1 (single isomer, unassigned; (+)) [Example 7, (+)-2-(4-fluorophenyl)-N-{4-[3-(pyridin-2-yl)-1H-pyrrolo[3,2-b]pyridin-2-yl]pyridin-2-yl}propanamide] | 0.949 nM |  | > 20000 nM |
| CC(C(=O)Nc1cc(-c2[nH]c3cc(Cl)cnc3c2-c2ccccn2)ccn1)c1ccc(F)cc1 (stereo not shown) [Example 52, N-{4-[6-chloro-3-(pyridin-2-yl)-1H-pyrrolo[3,2-b]pyridin-2-yl]pyridin-2-yl}-2-(4-fluorophenyl)propanamide] | 6.26 nM | > 20000 nM |  |
